Assay results taken from patent US20260374766A1, “METHODS FOR TREATING CANCER” (Antares Therapeutics, Inc., priority 2022, published 2026).
Like-named read-outs stand apart in the source and are kept apart here.

Assays:
p53 Y220C = p53 Y220C (Homo sapiens, UniProt P04637, Y220C); experiment: Luciferase Reporter Assay (Luc), p53 response element, NClH1299 cells with inducible p53 Y220C; format: cell-based; details: 6 hour; for AC50: read-out: Luc P53 Y220C AC50
In short: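 Doxycycline (0.5 ug/mL, 24 h) induces the mutant before a 6-hour compound treatment. Reporter activity is then quantified by One-Glo luminescence.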

[1] = target: T1, p53 Y220C mutant protein (amino acid residues 94-293) (Homo sapiens, UniProt P04637, Y220C); experiment: Surface Plasmon Resonance (SPR) assay, Kd_kinetic; format: binding; details: SPR, p53 Y220C, read-out: SPR P53 Y220C KD kinetic
T1 construct: p53 Y220C mutant protein (amino acid residues 94-293)
In short: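 Kinetic dissociation constants derived by 1:1 model fit of SPR data acquired at 16 or 20 °C, pH 7.5 Tris/NaCl running buffer with 1% DMSO.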

H1299 p53 Y220C = experiment: Cell Proliferation Assay (CellTiter-Glo, CTG), H1299 p53 Y220C (NClH1299-inducible p53 Y220C); format: cell-based; details: Homo sapiens, NCI-H1299, 120 h, 5 days
In short: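 Tet-One inducible p53 Y220C or R273H constructs were stably introduced into NCI-H1299 by lentiviral transduction; NUGC3 was used as is. Cells (250-500 per well) were exposed to compound for 5 days, then CellTiter-Glo was added for 10 min at room temperature and IC50 was calculated from luminescence.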

H1299 p53 R273H = experiment: Cell Proliferation Assay (CellTiter-Glo, CTG), H1299 p53 R273H (NClH1299-inducible p53 R273H); format: cell-based; details: Homo sapiens, NCI-H1299, 120 h, 5 days
Method: (§1) Inducible p53 Y220C and R273H constructs (Tet-One inducible expression system; Takara) were stably expressed in NClH1299 cells by lentiviral transduction. NUGC3, A549, BxPC3, T3M4, HuH7, HCC2935, MFE296, NClH1299, NClH1299-inducible p53 Y220C, and NClH1299-inducible p53 R273H cell lines were used for cell proliferation assay. 250-500 cells were seeded in each well of 384 plate and then compounds were dispensed into each well using Echo or Tecan. After 5 days of incubation, equal volume of CellTiter-Glo reagent (G7570; Promega) was added into each well and the plate was incubated at room temperature for 10 minutes with shaking. The luminescent signal was measured by PheraStar microplate reader and IC50 was calculated.

NUGC3 p53 Y220C = experiment: Cell Proliferation Assay (CellTiter-Glo, CTG), NUGC3 p53 Y220C; format: cell-based; details: Homo sapiens, NUGC-3, 120 h, 5 days
Method: as §1

[2] = AC50, luciferase reporter, NClH1299 inducible p53 Y220C
[3] = Emax, luciferase reporter, NClH1299 inducible p53 Y220C
[4] = NClH1299-inducible p53 Y220C cells, CellTiter-Glo
[5] = NClH1299-inducible p53 R273H cells, CellTiter-Glo
[6] = AC50, NClH1299 cells with inducible p53 Y220C
[7] = Emax, NClH1299 cells with inducible p53 Y220C, 10 uM tool compound as positive control
[8] = NClH1299-inducible p53 Y220C cells
[9] = NClH1299-inducible p53 R273H cells

T1 sequence (P04637 94-293, stated change not applied): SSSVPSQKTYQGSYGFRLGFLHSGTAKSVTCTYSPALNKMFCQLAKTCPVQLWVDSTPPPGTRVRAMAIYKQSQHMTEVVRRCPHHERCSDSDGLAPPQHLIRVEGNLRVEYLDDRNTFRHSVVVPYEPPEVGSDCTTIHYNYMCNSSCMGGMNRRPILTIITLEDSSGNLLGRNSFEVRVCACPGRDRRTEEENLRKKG

Row | SMILES | AC50 (p53 Y220C; [2]) | Emax (p53 Y220C; [3]) | Kd [1] | IC50 (H1299 p53 Y220C; [4]) | IC50 (H1299 p53 R273H; [5]) | IC50 (NUGC3 p53 Y220C; NUGC3 cells, CellTiter-Glo) | Emax (p53 Y220C; luciferase reporter, NClH1299 inducible p53 Y220C, 10 uM tool compound as positive control) | AC50 (p53 Y220C; luciferase reporter, NClH1299 inducible p53 Y220C) | Kd ([1]; kinetic KD) | IC50 (H1299 p53 Y220C; CellTiter-Glo, H1299 p53 Y220C) | IC50 (H1299 p53 R273H; CellTiter-Glo, H1299 p53 R273H) | IC50 (NUGC3 p53 Y220C; CellTiter-Glo, NUGC3 p53 Y220C) | AC50 (p53 Y220C; [6]) | Emax (p53 Y220C; [7]) | IC50 (H1299 p53 Y220C; [8]) | IC50 (H1299 p53 R273H; [9]) | IC50 (NUGC3 p53 Y220C; NUGC3 cells)
1 | COc1cc(C(=O)NCC(C)(C)O)ccc1NCC#Cc1cc2c(N[C@@H]3CCN(C)C[C@@H]3F)cccn2c1SC(F)(F)F [Example 375] | < 750 nM | > 90% | < 10 nM | < 750 nM | 8000 to 10000 nM | < 750 nM | – | – | – | – | – | – | – | – | – | – | –
2 | CN1CC[C@@H](Nc2cccn3c(SC(F)(F)F)c(C#CCNc4ccc(C(=O)NCCS(C)(=O)=O)cc4)cc23)[C@@H](F)C1 [Example 430, 4-{[3-(8-{[(3S,4R)-3-fluoro-1-methylpiperidin-4-yl]amino}-3-[(trifluoromethyl)sulfanyl]indolizin-2-yl)prop-2-yn-1-yl]amino}-N-(2-methanesulfonylethyl)benzamide] | < 750 nM | > 90% | < 10 nM | < 750 nM | ≥ 10000 nM | < 750 nM | – | – | – | – | – | – | – | – | – | – | –
3 | CNC(=O)c1ccc(OC)c(NCC#Cc2nn3c(N[C@@H]4CCN(C)C[C@@H]4F)ccnc3c2SC(F)(F)F)c1 [Example 216, 3-{[3-(7-{[(3S,4R)-3-fluoro-1-methylpiperidin-4-yl]amino}-3-[(trifluoromethyl)sulfanyl]pyrazolo[1,5-a]pyrimidin-2-yl)prop-2-yn-1-yl]amino}-4-methoxy-N-methylbenzamide] | – | – | – | – | – | – | < 70% | > 3000 nM | 10 to 100 nM | 1500 to 3000 nM | < 5000 nM | 1500 to 3000 nM | – | – | – | – | –
4 | COc1cc(P(C)(C)=O)cnc1NCC#Cc1cc2c(N[C@@H]3CCN(C)C[C@@H]3F)cccn2c1SC(F)(F)F [Example 402, 2-(3-{[5-(dimethylphosphoryl)-3-methoxypyridin-2-yl]amino}prop-1-yn-1-yl)-N-[(3S,4R)-3-fluoro-1-methylpiperidin-4-yl]-3-[(trifluoromethyl)sulfanyl]indolizin-8-amine] | < 750 nM | 80 to 90% | < 10 nM | < 750 nM | ≥ 10000 nM | < 750 nM | – | – | – | – | – | – | – | – | – | – | –
5 | CNC(=O)c1ccc(OC2COC2)c(NCC#Cc2cc3c(N[C@@H]4CCNC[C@@H]4F)cccn3c2SC(F)(F)F)n1 [Example 463] | – | – | < 10 nM | – | – | – | – | – | – | – | – | – | < 750 nM | > 90% | < 750 nM | ≥ 10000 nM | < 750 nM
6 | CN1CC[C@@H](Nc2cccn3c(SC(F)(F)F)c(C#CCNc4ccc(C(=O)NC[C@@H]5CCO5)cc4)cc23)[C@@H](F)C1 [Example 453] | < 750 nM | > 90% | < 10 nM | < 750 nM | ≥ 10000 nM | < 750 nM | – | – | – | – | – | – | – | – | – | – | –
7 | COc1cc(C(=O)N2CC(C)(O)C2)ccc1NCC#Cc1cc2c(N[C@@H]3CCNC[C@@H]3F)cccn2c1SC(F)(F)F [Example 406, 1-(4-{[3-(8-{[(3S,4R)-3-fluoropiperidin-4-yl]amino}-3-[(trifluoromethyl)sulfanyl]indolizin-2-yl)prop-2-yn-1-yl]amino}-3-methoxybenzoyl)-3-methylazetidin-3-ol] | < 750 nM | 80 to 90% | < 10 nM | < 750 nM | 5000 to 8000 nM | < 750 nM | – | – | – | – | – | – | – | – | – | – | –
8 | CN1CC[C@@H](Nc2cccn3c(SC(F)(F)F)c(C#CCNc4ccc(C(=O)NCC(C)(C)O)cc4)cc23)[C@@H](F)C1 [Example 457] | – | – | < 10 nM | – | – | – | – | – | – | – | – | – | < 750 nM | > 90% | < 750 nM | 8000 to 10000 nM | < 750 nM
9 | CNC(=O)c1cnc(OC)c(NCC#Cc2nc3c(N[C@H]4C[C@@H]5CC[C@@H](N5)[C@H]4F)cccn3c2SC(F)(F)F)c1 [Example 267] | < 750 nM | 70 to 80% | < 10 nM | < 750 nM | ≥ 10000 nM | < 750 nM | – | – | – | – | – | – | – | – | – | – | –
10 | CNC(=O)c1ccc(NCC#Cc2cc3c(N[C@@H]4CCN(C)C[C@@H]4F)cccn3c2SC(F)(F)F)c(OCF)c1 [Example 436, 4-{[3-(8-{[(3S,4R)-3-fluoro-1-methylpiperidin-4-yl]amino}-3-[(trifluoromethyl)sulfanyl]indolizin-2-yl)prop-2-yn-1-yl]amino}-3-(fluoromethoxy)-N-methylbenzamide] | < 750 nM | > 90% | < 10 nM | < 750 nM | ≥ 10000 nM | < 750 nM | – | – | – | – | – | – | – | – | – | – | –
11 | COc1cc(C(=O)NCC2(O)CC2)ccc1NCC#Cc1cc2c(N[C@@H]3CCNC[C@@H]3F)cccn2c1SC(F)(F)F [Example 387] | < 750 nM | 80 to 90% | < 10 nM | < 750 nM | 5000 to 8000 nM | < 750 nM | – | – | – | – | – | – | – | – | – | – | –
12 | COc1ccc(C(=O)N[C@@H](C)[C@@H](C)O)cc1NCC#Cc1cc2c(N[C@@H]3CCN(C)C[C@@H]3F)cccn2c1SC(F)(F)F [Example 410] | < 750 nM | > 90% | < 10 nM | < 750 nM | ≥ 10000 nM | < 750 nM | – | – | – | – | – | – | – | – | – | – | –
13 | CNC(=O)c1ccc(NCC#Cc2cc3c(N[C@@H]4CCN(C)C[C@@H]4F)cccn3c2SC(F)(F)F)c(C(=O)NC)n1 [Example 495, 3-{[3-(8-{[(3S,4R)-3-fluoro-1-methylpiperidin-4-yl]amino}-3-[(trifluoromethyl)sulfanyl]indolizin-2-yl)prop-2-yn-1-yl]amino}-N2,N6-dimethylpyridine-2,6-dicarboxamide] | – | – | < 10 nM | – | – | – | – | – | – | – | – | – | < 750 nM | > 90% | < 750 nM | 5000 to 8000 nM | < 750 nM
14 | CNC(=O)c1ccc(OC2COC2)c(NCC#Cc2cc3c(N[C@@H]4CCN(C)C[C@@H]4F)cccn3c2SC(F)(F)F)c1 [Example 499] | – | – | < 10 nM | – | – | – | – | – | – | – | – | – | < 750 nM | > 90% | < 750 nM | 5000 to 8000 nM | < 750 nM
15 | CNC(=O)c1ccc(NCC#Cc2nc3c(NC4CCS(=O)(=O)C4)cccn3c2SC(F)(F)F)c(OC)c1 (single isomer, unassigned) [Example 322] | 750 to 1500 nM | > 90% | 10 to 100 nM | 750 to 1500 nM | ≥ 10000 nM | 750 to 1500 nM | – | – | – | – | – | – | – | – | – | – | –
16 | CNC(=O)c1ccc(OC)c(NCC#Cc2nc3c(N[C@@H]4CNC[C@@H]4F)cccn3c2CC(F)(F)F)n1 [Example 263] | > 3000 nM | 70 to 80% | < 10 nM | 1500 to 3000 nM | ≥ 10000 nM | 750 to 1500 nM | – | – | – | – | – | – | – | – | – | – | –
